Measurements reported in US20240334931A1, “NEMATICIDAL COMPOSITION” (ISHIHARA SANGYO KAISHA, LTD., priority 2021, published 2024).

Legend:
[1] = system: southern root-knot nematode (Meloidogyne incognita); assay: Test on effects against southern root-knot nematode: treated contaminated soil, cucumber pot test (Test Example 1 and Comparative Test); type: in vivo; design: key: 0: No knot formed on the root at all; 1: Knots formed to a slight degree; 2: Knots formed to a moderate degree; 3: Knots formed to a heavy degree; 4: Knots formed to the heaviest degree
Description: The treated soil was put into a pot, three cucumber seeds were sown, and the pot was placed in a greenhouse. Two to three weeks after the sowing of the cucumber seeds, the root knot index was determined based on the degree of formation of root knots shown in Table 5. Each composition containing Compound No. […]-192 or B-196 at a concentration of 400 ppm and the composition containing Compound No. […] [table] […] Root knot index of 2 corresponds to a state where the proportion of healthy roots is 50% or less to the entire roots, and indicates control effects to such an extent that cucumber as a crop plant to be tested cannot healthily grow.

[2] = system: soybean cyst nematode (Heterodera glycines); assay: Test on effects against soybean cyst nematode: treated contaminated soil, soybean pot test (Test Example 3); type: in vivo; design: key: 0: No parasitic cyst observed on the roots at all; 1: Parasitic cyst observed to a slight degree; 2: Parasitic cyst observed to a moderate degree; 3: Parasitic cyst observed to a heavy degree; 4: Parasitic cyst observed densely on the entire roots; conditions: 800 ppm, 10 ml poured to 200 ml contaminated soil, about one month after sowing
Description: . The treated soil was put into a pot, three soybean seeds were sown, and the pot was placed in a greenhouse. About one month after the sowing of the soybean seeds, the parasite index was determined based on the cyst parasite level on the roots shown in Table 7.

[3] = 400 ppm, 10 ml poured to 200 ml contaminated soil, cucumber, two to three weeks after sowing
[4] = Comparative Test, active ingredient concentration 50 ppm, otherwise as Test Example 1 (cucumber)

SMILES	root knot index [1, 3]	also measured
CC(C)(C(=NNC=O)c1cccc(F)c1Cl)n1ccc(C(F)(F)F)n1 [A-349]	1	–
CC(C)(C(=NNC=O)c1ccccc1F)n1ccc(C(F)(F)F)n1 [A-152]	1	–
CC(C)(C(=NNC=O)c1cccc2c1OC(F)(F)O2)n1ccc(Cl)n1 [A-412]	1	–
Cc1cccc(C(=NNC=O)C(C)(C)n2ccc(Cl)n2)c1 [A-324]	1	–
C#CCN(C=O)N=C(c1ccccc1Cl)C(C)(C)n1ccc(C(F)(F)F)n1 [A-195]	1	–
CC(C)(C(=NNC=O)c1ccccc1OC(F)(F)F)n1ccc(Br)n1 [A-272]	1	–
Cc1cccc(C(=NNC=O)C(C)(C)n2ccc(C(F)(F)F)n2)c1 [A-322]	1	parasite index [2]: 1
CC(C)(C(=NNC=O)c1ccccc1C(F)(F)F)n1cnc(C(F)(F)F)n1 [A-261]	1	–
CC(C)(C(=NNC=O)c1ccccc1Cl)n1ccc(I)n1 [A-203]	1	–
CC(C)(C(=NNC=O)c1ccccc1Cl)n1cnc([N+](=O)[O-])n1 [A-206]	1	–
CSc1ccn(C(C)(C)C(=NNC=O)c2cccc(F)c2)n1 [A-430]	1	–
CC(C)(C(=NNC=O)c1ccccc1I)n1ccc(C(F)(F)F)n1 [A-240]	1	–
COc1ccccc1C(=NNC=O)C(C)(C)n1ccc(C(F)(F)F)n1 [A-264]	1	–
CC(C)(C(=NNC=O)c1cccc2c1OC(F)(F)O2)n1cnc(Cl)n1 [A-413]	1	–
CC(C)(C(=NNC=O)c1ccccc1Cl)n1cnc(Cl)n1 [A-200]	1	–
CC(C)(C(=NNC=O)c1cccc(F)c1Cl)n1cnc(C(F)(F)F)n1 [A-350]	1	–
COCN(C=O)N=C(c1ccccc1Br)C(C)(C)n1ccc(C(F)(F)F)n1 [A-235]	1	–
CC(C)(C(=NNC=O)c1ccc(F)cc1F)n1cnc(C(F)(F)F)n1 [A-157]	1	–
CCCN(C=O)N=C(c1ccc(Cl)cc1)C(C)(C)n1cnc(C(F)(F)F)n1 [A-96]	1	–
CN(C=O)N=C(c1ccc(Cl)cc1)C(C)(C)n1ccc(C(F)(F)F)n1 [A-91]	–	parasite index [2]: 1
CC(C)(C(=NNC=O)c1ccccc1Cl)n1ccc([N+](=O)[O-])n1 [A-205]	1	–

SMILES	root knot index [1, 3]	also measured
Cc1ccccc1C(=NNC=O)C(C)(C)n1ccc([N+](=O)[O-])n1 [A-251]	1	–
CC(C(=NNC=O)c1ccccc1)n1ccc(C(F)(F)F)n1 (centres unmarked) [Compound A-1 (WO2020/ 179910), reference compound]	–	root knot index [1, 4]: 2
Cc1ccccc1C(=NNC=O)C(C)(C)n1ccc(Cl)n1 [A-247]	1	–
O=CNN=C(c1ccccc1)C1(n2ccc(C(F)(F)F)n2)CCC1 [B-81]	1	–
CC(C)(C(=NNC=O)c1ccccc1Cl)n1cc(C(F)(F)F)cn1 [A-216]	1	–
CC(C)(C(=NNC=O)c1cccc(C(F)(F)F)c1)n1cnc(C(F)(F)F)n1 [A-327]	1	–
COc1ccccc1C(=NNC=O)C(C)(C)n1cnc(C(F)(F)F)n1 [A-265]	1	–
Cc1ccccc1C(=NNC=O)C(C)(C)n1cnc(C(F)(F)F)n1 [A-245]	1	–
CC(C)(C(=NNC=O)c1ccccc1OC(F)(F)F)n1ccc(C(F)(F)F)n1 [A-270]	1	–
CC(C)(C(=NNC=O)c1ccccc1Cl)n1ccc(C(F)(F)F)n1 [A-150]	1	–
Cc1ccccc1C(=NNC=O)C(C)(C)n1ccc(C#N)n1 [A-253]	1	–
CC(C)(C(=NNC=O)c1ccccc1OC(F)(F)F)n1cnc(C#N)n1 [A-273]	1	–
CC(C)(C(=NNC=O)c1cccc(F)c1)n1cnc(Cl)n1 [A-278]	1	–
CC(C)(C(=NNC=O)c1cccc2c1OC(F)(F)O2)n1cnc([N+](=O)[O-])n1 [A-419]	1	–
CC(C)(C(=NNC=O)c1cc(Cl)ccc1Cl)n1cnc(C(F)(F)F)n1 [A-335]	1	–
CN(C=O)N=C(c1ccc(Cl)cc1)C(C)(C)n1cnc(C(F)(F)F)n1 [A-94]	1	–
CC(C(=NNC=O)c1ccccc1)n1cnc(C(F)(F)F)n1 (centres unmarked) [Compound A-3 (WO2020/ 179910), reference compound]	–	root knot index [1, 4]: 2
CC(C)(C(=NNC=O)c1c(F)cccc1F)n1cnc(C(F)(F)F)n1 [A-161]	1	–
Cc1ccccc1C(=NNC=O)C(C)(C)n1ccc(C(F)(F)F)n1 [A-244]	1	–
CC(C)(C(=NNC=O)c1ccccc1Br)n1ccc(C(F)(F)F)n1 [A-233]	1	–
CC(C)(C(=NNC=O)c1cccc2c1OC(F)(F)O2)n1cnc(C(F)F)n1 [A-424]	1	–

SMILES	root knot index [1, 3]	also measured
CC(C)(C(=NNC=O)c1cccc(F)c1F)n1ccc(C(F)(F)F)n1 [A-336]	1	–
Cc1ccccc1C(=NNC=O)C(C)(C)n1ccc(Br)n1 [A-249]	1	–
CC(C)(C(=NNC=O)c1ccccc1Cl)n1ccc(Cl)n1 [A-199]	1	–
CC(C)(C(=NNC=O)c1cccc(F)c1)n1cnc(C(F)(F)F)n1 [A-275]	1	–
Cc1ccccc1C(=NNC=O)C(C)(C)n1cnc(Cl)n1 [A-248]	1	–
Cc1ccccc1C(=NNC=O)C(C)(C)n1cc([N+](=O)[O-])cn1 [A-256]	1	–
CC(C)(C(=NNC=O)c1ccccc1Cl)n1nc(Br)nc1Br [A-224]	1	–
CC(C)(C(=NNC=O)c1ccccc1Cl)n1cc(F)cn1 [A-217]	1	–
CC(C)(C(=NNC=O)c1ccccc1F)n1cnc(C(F)(F)F)n1 [A-153]	–	root knot index ([1]; 200 ppm, 10 ml poured to 200 ml contaminated soil, cucumber, two to three weeks after sowing): 1
O=CNN=C(c1ccc(Cl)cc1)C1(n2ccc(C(F)(F)F)n2)CC1 (single isomer, unassigned) [B-87]	1	–
Cc1ccccc1C(=NNC=O)C(C)(C)n1cc(C#N)c(C(F)(F)F)n1 [A-257]	1	–
CN(C=O)N=C(c1ccccc1)C1(n2cnc(C(F)(F)F)n2)CC1 [B-6]	–	parasite index [2]: 1
CC(C)(C(=NNC=O)c1ccccc1Cl)n1cnc(Br)n1 [A-202]	1	–
O=CNN=C(c1ccc(F)cc1)C1(n2ccc(C(F)(F)F)n2)CC1 (single isomer, unassigned) [B-105]	1	–
CC(C)(C(=NNC=O)c1ccc(F)cc1F)n1ccc(C(F)(F)F)n1 [A-156]	1	–
COCN(C=O)N=C(c1ccc(F)cc1)C(C)(C)n1ccc(C(F)(F)F)n1 [A-109]	–	parasite index [2]: 1
CC(C)(C(=NNC=O)c1c(F)cccc1F)n1ccc(C(F)(F)F)n1 [A-160]	1	–
COc1cccc(C(=NNC=O)C(C)(C)n2ccc(Cl)n2)c1 [A-330]	1	–
COc1cccc(C(=NNC=O)C(C)(C)n2cnc(C(F)(F)F)n2)c1 [A-329]	1	–
CC(C)(C(=NNC=O)c1cccc2c1OC(F)(F)O2)n1ccc(C(F)(F)F)n1 [A-410]	1	–
Cc1ccccc1C(=NNC=O)C(C)(C)n1cc(F)cn1 [A-255]	1	–

SMILES	root knot index [1, 3]	also measured
O=CNN=C(c1ccccc1Cl)C1(n2ccc(C(F)(F)F)n2)CC1 [B-148]	1	–
COCN(C=O)N=C(c1ccccc1)C1(n2cnc(C(F)(F)F)n2)CC1 [B-24]	–	parasite index [2]: 1
CC(C)(C(=NNC=O)c1ccc(F)cc1F)n1ccc(Cl)n1 [A-344]	1	–
CC(C)(C(=NNC=O)c1ccc(Cl)cc1)n1cnc(C(F)(F)F)n1 [A-90]	1	–
CC(C)(C(=NNC=O)c1cccc(Cl)c1Cl)n1ccc(C(F)(F)F)n1 [A-332]	1	–
CC(C)(C(=NNC=O)c1cc(F)ccc1Cl)n1ccc(C(F)(F)F)n1 [A-351]	1	–
CC(C)(C(=NNC=O)c1cc(Cl)ccc1Cl)n1ccc(C(F)(F)F)n1 [A-334]	1	–
CC(C)(C(=NNC=O)c1ccccc1I)n1cnc(C(F)(F)F)n1 [A-241]	1	–
Cc1ccccc1C(=NNC=O)C(C)(C)n1cnc([N+](=O)[O-])n1 [A-252]	1	–
CC(C)(C(=NNC=O)c1cccc2c1OC(F)(F)O2)n1cnc(C#N)n1 [A-417]	1	–
CC(C)(C(=NNC=O)c1ccccc1Cl)n1cnc(C(F)(F)F)n1 [A-151]	1	–
CC(C)(C(=NNC=O)c1cccc(F)c1)n1ccc(Cl)n1 [A-277]	1	–
CCN(C=O)N=C(c1ccccc1Cl)C(C)(C)n1ccc(C(F)(F)F)n1 [A-193]	1	–
CC(C)(C(=NNC=O)c1cccc2c1OC(F)(F)O2)n1ccc(Br)n1 [A-414]	1	–
CCN(C=O)N=C(c1ccc(Cl)cc1)C(C)(C)n1cnc(C(F)(F)F)n1 [A-95]	1	–
CC(C)(C(=NNC=O)c1ccccc1Cl)n1cnc(C(F)F)n1 [A-198]	1	–
CC(C)(C(=NNC=O)c1ccccc1Cl)n1ccc(Br)n1 [A-201]	1	–
CC(C)(C(=NNC=O)c1cccc(F)c1F)n1cnc(C(F)(F)F)n1 [A-337]	1	–
CC(C(=NNC=O)c1cccc(Cl)c1)n1ccc(C(F)(F)F)n1 (centres unmarked) [Compound A-58 (WO2020/ 179910), reference compound]	–	root knot index [1, 4]: 2
